The numbers were not newly measured in patent publication US20240043928A1, “BIOMARKERS FOR MYELODYSPLASTIC SYNDROME (MDS) AND METHODS OF USING THE SAME” (Eisai R&D Management Co., Ltd., priority 2020, published 2024), which cites them from elsewhere.

The conditions of the data set: subjects of a prior phase 1 trial; cited from earlier work.

In the case of `CC[C@H](O)[C@@H](C)[C@H]1O[C@@H]1C[C@@](C)(O)/C=C/C=C(\C)[C@H]1OC(=O)C[C@H](O)CC[C@@](C)(O)[C@@H](OC(=O)N2CCN(C3CCCCCC3)CC2)/C=C/[C@@H]1C` [Compound E7107], the visual loss entry is listed as “visual loss was observed”.
